Laboratory results as given in paper PMC8041306 (Journal of Medicinal Chemistry, 2021).

With `O=C(NCc1ccc(F)cc1)N1CCN2C(=O)OC(C3CCCCC3)(C3CCCCC3)C2C1` (stereo not shown) as the molecule, how does the melting point read?
The melting point was 94 to 95 °C.

With `CCCC1(CCC)OC(=O)N2CCN(C(=O)NCc3ccc(F)cc3)CC21` (stereo not shown) as the molecule, how does the melting point read?
The melting point was 74 to 77 °C.

For `N=C(NCc1ccccc1)N1CCN2C(=O)OC(c3ccccc3)(c3ccccc3)C2C1` (stereo not shown), which melting point is on record?
The melting point was 68 to 69 °C.

With `C[C@H]1CN(C(=O)NCc2ccc(F)cc2)C[C@H]2N1C(=O)OC2(c1ccccc1)c1ccccc1` as the molecule, how does the melting point read?
Its melting point is 153 to 156 °C.

With `O=C(NCc1ccc(F)cc1)N1CCN2C(=O)OC(c3ccc(F)cc3)(c3ccc(F)cc3)C2C1` (stereo not shown) as the molecule, how does the melting point read?
Its melting point is 104 to 107 °C.

Which melting point does the source give for `O=C(NCc1ccc(F)cc1)N1CCN2C(=O)OC(c3ccc(Cl)cc3)(c3ccc(Cl)cc3)C2C1` (stereo not shown) here?
Its melting point is 77 to 79 °C.

Which melting point does the source give for `Cc1ccc(C2(c3ccc(C)cc3)OC(=O)N3CCN(C(=O)NCc4ccc(F)cc4)CC32)cc1` (stereo not shown) here?
Its melting point is 89 to 90 °C.

Which melting point does the source give for `CN(C)c1ccc(C2(c3ccc(N(C)C)cc3)OC(=O)N3CCN(C(=O)NCc4ccc(F)cc4)CC32)cc1` (stereo not shown) here?
Its melting point is 110 to 113 °C.

For `Cc1ccccc1C1(c2ccccc2C)OC(=O)N2CCN(C(=O)NCc3ccc(F)cc3)CC21` (stereo not shown), which melting point is on record?
The melting point was 217 to 219 °C.

With `COc1ccccc1C1(c2ccccc2OC)OC(=O)N2CCN(C(=O)NCc3ccc(F)cc3)CC21` (stereo not shown) as the molecule, how does the melting point read?
Its melting point is 172 to 173 °C.

Which melting point does the source give for `O=C(NCc1ccc(F)cc1)N1CCN2C(=O)OC3(c4ccccc4-c4ccccc43)C2C1` (stereo not shown) here?
The melting point was 120 to 123 °C.

With `N=C(NCc1ccc(F)cc1)N1CCN2C(=O)OC(c3ccccc3)(c3ccccc3)C2C1` (stereo not shown) [Compound 16, N-(4-Fluorobenzyl)-3-oxo-1,1-diphenyltetrahydro-1H-oxazolo[3,4-a]pyrazine-7(3H)-carboximidamide] as the molecule, how does the melting point read?
Its melting point is 82 to 85 °C.

Which melting point does the source give for `O=C(NCc1ccc(F)cc1)N1C[C@H](c2ccccc2)N2C(=O)OC(c3ccccc3)(c3ccccc3)[C@H]2C1` [Compound 21, (5S,8aR)-N-(4-Fluorobenzyl)-3-oxo-1,1,5-triphenyltetrahydro-1H-oxazolo[3,4-a]pyrazine-7(3H)-carboxamide] here?
The melting point was 105 to 107 °C.
